# Laboratory results as given in US20230263786A1, “MODULATION OF DRUG-DRUG INTERACTIONS OF VADADUSTAT” (Akebia Therapeutics, Inc., priority 2020, published 2023).
# Read-outs that look alike come from different tables or passages of the source.
# Experiments:
# [1] = Phase I calcium acetate interaction study; assay type: in vivo, human; details: for AUC(0-t) / Cmax / Tmax / AUC(0-inf) / clearance / half-life / Vd: human, plasma, oral; for Tmax: median; for clearance: read-out: Clearance (ClB) (converted); for half-life: read-out: Elimination half-life (t1/2) (converted); for Vd: read-out: Volume of distribution (Vc)
# Procedure: A phase I, open-label, fixed-sequence study was conducted in healthy adult subjects to assess the effect of 1) a single oral dose of calcium acetate on the pharmacokinetics of a single oral dose of vadadustat.
# The study included screening (28 days maximum), 9-day treatment period, and a 14-day follow-up period post last dose.
# Pharmacokinetics. A predose PK blood sample was collected on Day 1. After each dose of vadadustat administered (Days 1, 3, 5, and 7), blood samples for PK analysis were collected at the following time points: predose and 0.5, 1, 1.5, 2, 3, 4, 6, 9, 12, 16, 24, and 48 hours after each dose of vadadustat. The 48-hour postdose sample was collected before vadadustat administration on Days 3, 5, and 7. The following parameters were calculated and analyzed: AUC0-∞, AUC0-last, Cmax, Tmax, Kel, CIB, Vc/F, and t1/2.
# Subjects were dosed approximately at the same designated time on each dosing day, where applicable. Study drugs were administered with approximately 8 ounces (240 mL) of water at room temperature in a seated position. Subjects were instructed to drink the full 8 ounces of water, and not to chew or break the tablets/gelcaps.
# The 9-day treatment period was conducted as follows: • Day 1: vadadustat administered immediately after consuming breakfast. • Day 2: wash-out (no investigational product administration). • Day 3: vadadustat administered concomitantly with the requisite phosphate binder immediately after consuming breakfast. • Day 4: wash-out (no investigational product administration). • Day 5: vadadustat administered in fasted condition and the phosphate binder administered 1 hour later (breakfast must be served within 2 minutes after phosphate binder administration and consumed immediately after it is served). • Day 6: wash-out (no investigational product administration). • Day 7: phosphate binder administered immediately after consuming breakfast; vadadustat administered 2 hours after the phosphate binder was administered. • Day 8: wash-out (no investigational product administration). • Day 9: subjects discharged from the Clinical Research Unit (CRU) after the 48-hour postdose PK blood sample has been collected.
# A single oral dose of vadadustat 300 mg (2×150 mg tablets) was administered on Days 1, 3, 5, and 7. Phosphate binder that is calcium acetate (1334 mg, 2×667 mg gelcaps) was administered on Days 3, 5, and 7.
# [2] = Phase I interaction study with statins and sulfasalazine: safety and tolerability; assay type: in vivo, human; details: taken alone or during treatment with rosuvastatin, pravastatin, atorvastatin, or simvastatin
# Procedure: The pharmacokinetic (pK) parameters and safety of said drugs administered alone and in combination with Compound 1 were characterized.
# Safety and Tolerability. Subject safety were evaluated throughout the study beginning on Day 1 (Baseline) until 30 days (±2 days) post last dose. The following safety assessments were performed: physical exam, 12-lead ECG (electrocardiogram), vital signs, clinical laboratory results, QuantiFERON®-TB Test, serology, and pregnancy. Adverse events (AE) were summarized.
# [3] = target: T1, UGT1A1 (Homo sapiens, UniProt P22309); assay: UGT1A1 inhibition in vitro; assay type: in vitro ADME
# T1 sequence (P22309 26-533): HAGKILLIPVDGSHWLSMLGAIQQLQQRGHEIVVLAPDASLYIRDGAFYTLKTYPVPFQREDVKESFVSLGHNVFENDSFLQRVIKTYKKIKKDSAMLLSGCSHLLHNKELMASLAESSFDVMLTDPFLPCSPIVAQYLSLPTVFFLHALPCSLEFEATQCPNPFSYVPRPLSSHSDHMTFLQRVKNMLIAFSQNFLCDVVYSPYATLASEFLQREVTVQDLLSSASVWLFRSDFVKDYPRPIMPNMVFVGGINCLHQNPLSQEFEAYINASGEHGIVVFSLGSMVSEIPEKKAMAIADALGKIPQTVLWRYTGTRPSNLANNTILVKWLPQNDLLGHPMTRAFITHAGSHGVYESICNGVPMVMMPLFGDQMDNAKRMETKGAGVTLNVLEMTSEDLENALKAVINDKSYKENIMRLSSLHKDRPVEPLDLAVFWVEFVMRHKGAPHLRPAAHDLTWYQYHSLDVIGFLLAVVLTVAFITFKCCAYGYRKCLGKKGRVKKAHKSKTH
# [4] = target: T2, CYP2C8 (Homo sapiens, UniProt P10632); assay: CYP2C8 inhibition in vitro; assay type: in vitro ADME
# T2 sequence (P10632 1-490): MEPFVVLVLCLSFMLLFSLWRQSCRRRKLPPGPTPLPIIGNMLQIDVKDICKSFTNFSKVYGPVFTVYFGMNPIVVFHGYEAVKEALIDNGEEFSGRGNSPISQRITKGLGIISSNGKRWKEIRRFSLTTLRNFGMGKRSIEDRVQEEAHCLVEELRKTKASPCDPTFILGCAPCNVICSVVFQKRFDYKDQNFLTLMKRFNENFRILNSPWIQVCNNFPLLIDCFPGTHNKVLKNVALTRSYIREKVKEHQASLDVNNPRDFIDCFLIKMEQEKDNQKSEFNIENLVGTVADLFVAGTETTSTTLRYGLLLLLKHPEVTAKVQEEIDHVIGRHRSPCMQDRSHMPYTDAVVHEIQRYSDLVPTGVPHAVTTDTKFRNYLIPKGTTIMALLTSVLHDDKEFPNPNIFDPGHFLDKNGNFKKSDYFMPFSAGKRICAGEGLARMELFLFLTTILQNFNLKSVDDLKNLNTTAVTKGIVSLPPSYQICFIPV
# [5] = concomitant administration of phosphate binder, ANOVA
# [6] = 300 mg, Concomitant administration with calcium acetate 1334 mg after breakfast
# [7] = 300 mg, Vadadustat 300 mg alone, immediately after breakfast
# [8] = 300 mg, Vadadustat administered 1 hour prior to calcium acetate, fasting
# [9] = 300 mg, Vadadustat administered 2 hours after calcium acetate
smiles,measurement,setting,value
"O=C(O)CNC(=O)c1ncc(-c2cccc(Cl)c2)cc1O [Compound 1, {[5-(3-chlorophenyl)-3-hydroxypyridine-2-carbonyl]amino}acetic acid]",reduction of AUC0-last and AUC0-∞,[1]; [5],about 55%
same,reduction of Cmax,[1]; [5],about 51%
same,AUC(0-t),[1]; [6],77.4 ± 31.7 µg·h/mL
same,Cmax,[1]; [6],11.3 ± 4.39 µg/mL
same,Tmax,[1]; [6],4 h
same,AUC(0-inf),"[1]; 300 mg, Concomitant administration with calcium acetate 1334 mg after breakfast, read-out: AUC0-∞",79.6 ± 32.7 µg·h/mL
same,clearance,[1]; [6],77.3 mL/min
same,half-life,[1]; [6],4.58 ± 0.9 h
same,Vd,[1]; [6],29.8 ± 14.6 L
same,AUC(0-t),[1]; [7],163 ± 45.7 µg·h/mL
same,Cmax,[1]; [7],21.9 ± 5.61 µg/mL
same,Tmax,[1]; [7],3.93 h
same,AUC(0-inf),"[1]; 300 mg, Vadadustat 300 mg alone, immediately after breakfast, read-out: AUC0-∞",166 ± 45.4 µg·h/mL
same,clearance,[1]; [7],31.8 mL/min
same,half-life,[1]; [7],4.75 ± 1.2 h
same,Vd,[1]; [7],12.6 ± 2.41 L
same,AUC(0-t),[1]; [8],130 ± 36.2 µg·h/mL
same,Cmax,[1]; [8],25 ± 9.56 µg/mL
same,Tmax,[1]; [8],1.44 h
same,AUC(0-inf),"[1]; 300 mg, Vadadustat administered 1 hour prior to calcium acetate, fasting, read-out: AUC0-∞",133 ± 36.8 µg·h/mL
same,clearance,[1]; [8],40.3 mL/min
same,half-life,[1]; [8],4.47 ± 0.75 h
same,Vd,[1]; [8],15.3 ± 3.25 L
same,AUC(0-t),[1]; [9],132 ± 44.3 µg·h/mL
same,Cmax,[1]; [9],24.6 ± 7.13 µg/mL
same,Tmax,[1]; [9],2.97 h
same,AUC(0-inf),"[1]; 300 mg, Vadadustat administered 2 hours after calcium acetate, read-out: AUC0-∞",135 ± 44.3 µg·h/mL
same,clearance,[1]; [9],42.2 mL/min
same,half-life,[1]; [9],4.84 ± 1.03 h
same,Vd,[1]; [9],17.8 ± 9.99 L
same,AUC(0-inf),"[1]; vadadustat administered concurrently with calcium acetate, read-out: geometric LS mean AUC0-∞",72.4 µg·h/mL
same,changes in vadadustat exposure,[1]; vadadustat administered 1 hour prior to calcium acetate,within the prespecified no-effect boundaries of 80% to 125%
same,changes in vadadustat exposure,[1]; vadadustat administered 2 hours after calcium acetate,within the prespecified no-effect boundaries of 80% to 125%
same,tolerability,[2],well tolerated
same,inhibitory effect on UGT1A1,[3],inhibitory effect
same,inhibitory effect on CYP2C8,[4],inhibitory effect
